Test results published in ChEMBL document CHEMBL1909294, “Translating clinical findings into knowledge in drug safety evaluation--drug induced liver injury prediction system (DILIps)” (PLoS Comput Biol, 2011).

What was measured:
Hepatotoxicity [1] = tested on: Hepatotoxicity;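 as to HepSE Combined Scores: combined hepatic side effect score as listed in the training data of the Drug Induced Liver Injury Prediction System (DILIps)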;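 as to HepSE cholelithiasis: hepatic side effect score for cholelithiasis, drawn from the DILIps training data for predicting drug-induced liver injury; call rule not given here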;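 as to HepSE cirrhosis: cirrhosis hepatic side effect score taken from the DILIps (drug-induced liver injury prediction) training set; call rule not given here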;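 as to HepSE elevated liver function tests: hepatic side effect score for raised liver function tests, as recorded in the DILIps training set used for predicting drug-induced liver injury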;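 as to HepSE hepatitis: Hepatitis-related hepatic side effect score taken from the training data of DILIps, a prediction system for drug-induced liver injury; call rule not given here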;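 as to HepSE liver function tests abnormal: hepatic side effect score taken from the DILIps (drug-induced liver injury prediction system) training data, here covering abnormal liver function test findings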
Hepatotoxicity [2] = tested on: Hepatotoxicity; remark: listed apart in the source;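 as to HepSE Combined Scores: combined hepatic side effect score as listed in the training data of the Drug Induced Liver Injury Prediction System (DILIps)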;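 as to HepSE cholelithiasis: hepatic side effect score for cholelithiasis, drawn from the DILIps training data for predicting drug-induced liver injury; call rule not given here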;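 as to HepSE cirrhosis: cirrhosis hepatic side effect score taken from the DILIps (drug-induced liver injury prediction) training set; call rule not given here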;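 as to HepSE elevated liver function tests: hepatic side effect score for raised liver function tests, as recorded in the DILIps training set used for predicting drug-induced liver injury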;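 as to HepSE hepatitis: Hepatitis-related hepatic side effect score taken from the training data of DILIps, a prediction system for drug-induced liver injury; call rule not given here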;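 as to HepSE liver function tests abnormal: hepatic side effect score taken from the DILIps (drug-induced liver injury prediction system) training data, here covering abnormal liver function test findings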
Hepatotoxicity [3] = tested on: Hepatotoxicity; remark: listed apart in the source;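 as to HepSE Combined Scores: combined hepatic side effect score as listed in the training data of the Drug Induced Liver Injury Prediction System (DILIps)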;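 as to HepSE cholelithiasis: hepatic side effect score for cholelithiasis, drawn from the DILIps training data for predicting drug-induced liver injury; call rule not given here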;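 as to HepSE cirrhosis: cirrhosis hepatic side effect score taken from the DILIps (drug-induced liver injury prediction) training set; call rule not given here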;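 as to HepSE elevated liver function tests: hepatic side effect score for raised liver function tests, as recorded in the DILIps training set used for predicting drug-induced liver injury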;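 as to HepSE hepatitis: Hepatitis-related hepatic side effect score taken from the training data of DILIps, a prediction system for drug-induced liver injury; call rule not given here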;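 as to HepSE liver function tests abnormal: hepatic side effect score taken from the DILIps (drug-induced liver injury prediction system) training data, here covering abnormal liver function test findings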
Hepatotoxicity [4] = tested on: Hepatotoxicity; remark: listed apart in the source;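 as to HepSE Combined Scores: combined hepatic side effect score as listed in the training data of the Drug Induced Liver Injury Prediction System (DILIps)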;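 as to HepSE cholelithiasis: hepatic side effect score for cholelithiasis, drawn from the DILIps training data for predicting drug-induced liver injury; call rule not given here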;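 as to HepSE cirrhosis: cirrhosis hepatic side effect score taken from the DILIps (drug-induced liver injury prediction) training set; call rule not given here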;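 as to HepSE elevated liver function tests: hepatic side effect score for raised liver function tests, as recorded in the DILIps training set used for predicting drug-induced liver injury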;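 as to HepSE hepatitis: Hepatitis-related hepatic side effect score taken from the training data of DILIps, a prediction system for drug-induced liver injury; call rule not given here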
Hepatotoxicity [5] = tested on: Hepatotoxicity; remark: listed apart in the source
Hepatotoxicity [6] = tested on: Hepatotoxicity; remark: listed apart in the source
Hepatotoxicity [7] = tested on: Hepatotoxicity; remark: listed apart in the source
Hepatotoxicity [8] = tested on: Hepatotoxicity; remark: listed apart in the source
Hepatotoxicity [9] = tested on: Hepatotoxicity; remark: listed apart in the source
Hepatotoxicity [10] = tested on: Hepatotoxicity; remark: listed apart in the source
Hepatotoxicity [11] = tested on: Hepatotoxicity; remark: listed apart in the source
Hepatotoxicity [12] = tested on: Hepatotoxicity; remark: listed apart in the source
Hepatotoxicity [13] = tested on: Hepatotoxicity; remark: listed apart in the source
Hepatotoxicity [14] = tested on: Hepatotoxicity; remark: listed apart in the source

Compound	HepSE_elevated liver function tests (Hepatotoxicity [1])	HepSE_Combined Scores (Hepatotoxicity [2])	HepSE_cholelithiasis (Hepatotoxicity [3])	HepSE_hepatitis (Hepatotoxicity [4])	HepSE_cirrhosis (Hepatotoxicity [5])	HepSE_hepatic necrosis (Hepatotoxicity [6])	HepSE_liver function tests abnormal (Hepatotoxicity [7])	HepSE_bilirubinemia (Hepatotoxicity [8])	HepSE_liver disease (Hepatotoxicity [9])	HepSE_hepatomegaly (Hepatotoxicity [10])	HepSE_jaundice (Hepatotoxicity [11])	HepSE_hepatic failure (Hepatotoxicity [12])	HepSE_cholecystitis (Hepatotoxicity [13])	HepSE_liver fatty (Hepatotoxicity [14])	other results
GENTAMICIN	0	1	0	0	0	0	0	0	0	1	0	0	0	0	
NITROPRUSSIDE	0	0	0	0	0	0	0	0	0	0	0	0	0	0	
CCC(=O)C(CC(C)N(C)C)(c1ccccc1)c1ccccc1 (configuration not stated) [METHADONE]	0	0	0	0	0	0	0	0	0	0	0	0	0	0	
NS(=O)(=O)c1cc(C2(O)NC(=O)c3ccccc32)ccc1Cl (configuration not stated) [CHLORTHALIDONE]	0	1	0	0	0	0	0	0	0	0	1	0	0	0	
CCCCCOC(=O)Nc1nc(=O)n([C@@H]2O[C@H](C)[C@@H](O)[C@H]2O)cc1F [CAPECITABINE]	0	7	0	1	0	0	1	1	0	1	1	1	0	1	
C[C@@H]1C[C@H]2[C@@H]3C[C@H](F)C4=CC(=O)C=C[C@]4(C)[C@@]3(F)[C@@H](O)C[C@]2(C)[C@@]1(O)C(=O)SCF [FLUTICASONE]	0	1	0	0	0	0	0	0	0	0	0	0	1	0	
Cc1ccc(C(=O)c2ccc(CC(=O)O)n2C)cc1 [TOLMETIN]	0	1	0	1	0	0	0	0	0	0	0	0	0	0	
CN1[C@@H]2CC[C@H]1C[C@@H](OC(c1ccccc1)c1ccccc1)C2 [BENZTROPINE]	0	0	0	0	0	0	0	0	0	0	0	0	0	0	
CC[C@@H](CO)NCCN[C@@H](CC)CO [ETHAMBUTOL]	0	2	0	1	0	0	1	0	0	0	0	0	0	0	
Cc1cccc([C@H](C)c2cnc[nH]2)c1C [DEXMEDETOMIDINE]															HepSE_elevated liver function tests (Hepatotoxicity [1]; Liver): 0; HepSE_Combined Scores (Hepatotoxicity [2]; Liver): 1; HepSE_cholelithiasis (Hepatotoxicity [3]; Liver): 0; HepSE_hepatitis (Hepatotoxicity [4]; Liver): 0; HepSE_cirrhosis (Hepatotoxicity [5]; Liver): 0; HepSE_hepatic necrosis (Hepatotoxicity [6]; Liver): 0; HepSE_liver function tests abnormal (Hepatotoxicity [7]; Liver): 0; HepSE_bilirubinemia (Hepatotoxicity [8]; Liver): 1; HepSE_liver disease (Hepatotoxicity [9]; Liver): 0; HepSE_hepatomegaly (Hepatotoxicity [10]; Liver): 0; HepSE_jaundice (Hepatotoxicity [11]; Liver): 0; HepSE_hepatic failure (Hepatotoxicity [12]; Liver): 0; HepSE_cholecystitis (Hepatotoxicity [13]; Liver): 0; HepSE_liver fatty (Hepatotoxicity [14]; Liver): 0
CC(C)NCC(O)COc1ccc(COCCOC(C)C)cc1 (configuration not stated) [BISOPROLOL]	0	0	0	0	0	0	0	0	0	0	0	0	0	0	
CCCCS(=O)(=O)N[C@@H](Cc1ccc(OCCCCC2CCNCC2)cc1)C(=O)O [TIROFIBAN]															HepSE_elevated liver function tests (Hepatotoxicity [1]; Liver): 0; HepSE_Combined Scores (Hepatotoxicity [2]; Liver): 0; HepSE_cholelithiasis (Hepatotoxicity [3]; Liver): 0; HepSE_hepatitis (Hepatotoxicity [4]; Liver): 0; HepSE_cirrhosis (Hepatotoxicity [5]; Liver): 0; HepSE_hepatic necrosis (Hepatotoxicity [6]; Liver): 0; HepSE_liver function tests abnormal (Hepatotoxicity [7]; Liver): 0; HepSE_bilirubinemia (Hepatotoxicity [8]; Liver): 0; HepSE_liver disease (Hepatotoxicity [9]; Liver): 0; HepSE_hepatomegaly (Hepatotoxicity [10]; Liver): 0; HepSE_jaundice (Hepatotoxicity [11]; Liver): 0; HepSE_hepatic failure (Hepatotoxicity [12]; Liver): 0; HepSE_cholecystitis (Hepatotoxicity [13]; Liver): 0; HepSE_liver fatty (Hepatotoxicity [14]; Liver): 0
NS(=O)(=O)c1cc2c(cc1Cl)NCNS2(=O)=O [HYDROCHLOROTHIAZIDE]	0	1	0	0	0	0	0	0	0	0	1	0	0	0	
